molecular target: T1, mutant form of the human GPR119 receptor (Homo sapiens, UniProt Q8TDV5, S329A/T327A); assay: LANCE cAMP-384 assay in HEK293 cells stably expressing a mutant form of the human GPR119 receptor; assay type: cell-based; conditions: cAMP accumulation, GPR119 stable HEK293 cells, LANCE kit, 20 min at 37° C.
T1 construct: expressed in transfected cells
T1 sequence (Q8TDV5 with tags, fused parts or gaps T327A/S329A): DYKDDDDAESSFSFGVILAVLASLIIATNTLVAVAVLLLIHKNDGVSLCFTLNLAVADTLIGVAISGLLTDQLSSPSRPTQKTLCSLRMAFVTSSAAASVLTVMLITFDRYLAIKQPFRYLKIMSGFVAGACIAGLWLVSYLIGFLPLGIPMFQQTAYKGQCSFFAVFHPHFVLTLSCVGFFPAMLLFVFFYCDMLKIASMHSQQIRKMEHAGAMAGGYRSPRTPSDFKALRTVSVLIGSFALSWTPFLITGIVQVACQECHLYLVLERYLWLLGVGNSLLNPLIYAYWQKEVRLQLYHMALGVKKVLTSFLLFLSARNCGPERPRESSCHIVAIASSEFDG
Experimental: Quantitative detection of cAMP accumulation from cells expressing human GPR119 receptor is achieved using Perkin Elmer's LANCE cAMP-384 Kit (Cat#AD0264) according to the manufacturer's protocol. Briefly, HEK293 cells stably expressing a mutant form of the human GPR119 receptor as assay tool (Methionine 1 replaced with the amino acid sequence […], and T327 & S329 changed to alanines; SEQ ID No. 1) are grown to 50-70% confluency in cell culture media (DMEM, 10% heat inactivated Fetal Bovine Serum, 50 I.U./mL penicillin, 50 μg/mL streptomycin, 10 mM HEPES, 20 μg/mL G418 Sulfate). On the day of the assay, GPR119 stable HEK293 cells are lifted from the tissue culture plate and 1000 cells/well are incubated along with various concentrations of test compounds for 20 min at 37° C. Detection Buffer (50 mM HEPES, 10 mM calcium chloride, 0.35% Triton X-100, 1 mg/mL BSA) containing cAMP-specific antibody is then added to all wells and allowed to equilibrate in the dark for 10 minutes at room temperature. Upon equilibration, Detection Buffer containing europium-labeled cAMP tracer complex is added to all wells and allowed to react for 1 hour at room temperature. After 1 hour, bound europium-labeled cAMP tracer is measured using a Perkin Elmer Envision plate reader. The quantity of cAMP generated in each well is derived from a standard curve. EC50 is determined using nonlinear regression analysis of the cAMP values over a range of agonist concentration (12 points spanning the range from 30 μM to 100 pM).

Row | SMILES | EC50 [nM]
1 | Cc1ncnn1-c1ccc(C(=O)N(C2CC2)[C@H]2CCN(c3ccc(C(F)(F)F)cn3)C[C@H]2F)cn1 (single isomer, unassigned) [Example 69] | 496
2 | Cc1nnnn1-c1ccc(C(=O)N(C2CC2)[C@H]2CCN(c3ccc(C(F)(F)F)cn3)C[C@H]2F)cn1 (single isomer, unassigned) [Example 70] | 127
3 | O=C(c1cnc(-n2cncn2)cn1)N(C1CC1)[C@H]1CCN(c2ccc(C(F)(F)F)cn2)C[C@H]1F (single isomer, unassigned) [Example 71] | 94
4 | Cc1nccn1-c1ncc(C(=O)N(C2CC2)[C@H]2CCN(c3ccc(C(F)(F)F)cn3)C[C@H]2F)cn1 (single isomer, unassigned) [Example 72] | 56
5 | Cc1nccn1-c1ccc(C(=O)N(C2CC2)[C@H]2CCN(c3ccc(C(F)(F)F)cn3)C[C@H]2F)cn1 (single isomer, unassigned) [Example 73] | 391
6 | Cc1ncn(-c2cnc(C(=O)N(C3CC3)[C@H]3CCN(c4ccc(C(F)(F)F)cn4)C[C@H]3F)cn2)n1 (single isomer, unassigned) [Example 74] | 411
7 | Cc1nccn1-c1cnc(C(=O)N(C2CC2)[C@H]2CCN(c3ccc(C(F)(F)F)cn3)C[C@H]2F)cn1 (single isomer, unassigned) [Example 75] | 341
8 | Cc1ncnn1-c1ccc(C(=O)N(C2CC2)[C@@H]2CCN(c3ccc(C(F)(F)F)cn3)C[C@@H]2F)cn1 (single isomer, unassigned) [Example 76] | 46
9 | Cc1nnnn1-c1ccc(C(=O)N(C2CC2)[C@@H]2CCN(c3ccc(C(F)(F)F)cn3)C[C@@H]2F)cn1 (single isomer, unassigned) [Example 77] | 13
10 | O=C(c1cnc(-n2cncn2)cn1)N(C1CC1)[C@@H]1CCN(c2ccc(C(F)(F)F)cn2)C[C@@H]1F (single isomer, unassigned) [Example 78] | 9
11 | O=C(c1cnc(-n2cncn2)nc1)N(C1CC1)[C@@H]1CCN(c2ccc(C(F)(F)F)cn2)C[C@@H]1F (single isomer, unassigned) [Example 80] | 111
12 | Cc1nccn1-c1ccc(C(=O)N(C2CC2)[C@@H]2CCN(c3ccc(C(F)(F)F)cn3)C[C@@H]2F)cn1 (single isomer, unassigned) [Example 81] | 34
13 | Cc1ncn(-c2cnc(C(=O)N(C3CC3)[C@@H]3CCN(c4ccc(C(F)(F)F)cn4)C[C@@H]3F)cn2)n1 (single isomer, unassigned) [Example 82] | 35
14 | Cc1nccn1-c1cnc(C(=O)N(C2CC2)[C@@H]2CCN(c3ccc(C(F)(F)F)cn3)C[C@@H]2F)cn1 (single isomer, unassigned) [Example 83] | 12
15 | CCc1cnc(N2CC[C@@H](N(C(=O)c3ccc(-n4ncnc4C)nc3)C3CC3)[C@@H](F)C2)nc1 (single isomer, unassigned) [Example 84] | 15
16 | CCc1cnc(N2CC[C@@H](N(C(=O)c3ccc(-n4nnnc4C)nc3)C3CC3)[C@@H](F)C2)nc1 (single isomer, unassigned) [Example 85] | 20
17 | CCc1cnc(N2CC[C@@H](N(C(=O)c3cnc(-n4cncn4)cn3)C3CC3)[C@@H](F)C2)nc1 (single isomer, unassigned) [Example 86] | 5
18 | CCc1cnc(N2CC[C@@H](N(C(=O)c3cnc(-n4ccnc4C)nc3)C3CC3)[C@@H](F)C2)nc1 (single isomer, unassigned) [Example 87] | 4
19 | CCc1cnc(N2CC[C@@H](N(C(=O)c3ccc(-n4ccnc4C)nc3)C3CC3)[C@@H](F)C2)nc1 (single isomer, unassigned) [Example 88] | 29
20 | CCc1cnc(N2CC[C@@H](N(C(=O)c3cnc(-n4cnc(C)n4)cn3)C3CC3)[C@@H](F)C2)nc1 (single isomer, unassigned) [Example 89] | 18
21 | CCc1cnc(N2CC[C@@H](N(C(=O)c3cnc(-n4ccnc4C)cn3)C3CC3)[C@@H](F)C2)nc1 (single isomer, unassigned) [Example 90] | 44
22 | CCc1cnc(N2CC[C@@H](N(C(=O)c3cnc(-n4cncn4)nc3)C3CC3)[C@@H](F)C2)nc1 (single isomer, unassigned) [Example 91] | 202
23 | CCc1cnc(N2CC[C@@H](N(C(=O)c3cnc(-n4cncn4)cn3)C3CC3)[C@@H](F)C2)nc1 (single isomer, unassigned) [Example 92] | 609
24 | Cc1ncnn1-c1ccc(C(=O)N(C2CC2)[C@@H]2CCN(c3ncc(Cl)cn3)C[C@@H]2F)cn1 (single isomer, unassigned) [Example 93] | 24

Row | SMILES | EC50 [nM]
25 | Cc1nnnn1-c1ccc(C(=O)N(C2CC2)[C@@H]2CCN(c3ncc(Cl)cn3)C[C@@H]2F)cn1 (single isomer, unassigned) [Example 94] | 8
26 | Cc1nccn1-c1ncc(C(=O)N(C2CC2)[C@@H]2CCN(c3ncc(Cl)cn3)C[C@@H]2F)cn1 (single isomer, unassigned) [Example 95] | 7
27 | O=C(c1cnc(-n2cncn2)nc1)N(C1CC1)[C@@H]1CCN(c2ncc(Cl)cn2)C[C@@H]1F (single isomer, unassigned) [Example 96] | 65
28 | Cc1nccn1-c1ccc(C(=O)N(C2CC2)[C@@H]2CCN(c3ncc(Cl)cn3)C[C@@H]2F)cn1 (single isomer, unassigned) [Example 97] | 32
29 | Cc1ncn(-c2cnc(C(=O)N(C3CC3)[C@@H]3CCN(c4ncc(Cl)cn4)C[C@@H]3F)cn2)n1 (single isomer, unassigned) [Example 98] | 14
30 | Cc1nccn1-c1cnc(C(=O)N(C2CC2)[C@@H]2CCN(c3ncc(Cl)cn3)C[C@@H]2F)cn1 (single isomer, unassigned) [Example 99] | 18
31 | Cc1ncnn1-c1ncc(C(=O)N(C2CC2)[C@@H]2CCN(c3ncc(Cl)cn3)C[C@@H]2F)cn1 (single isomer, unassigned) [Example 100] | 136
32 | Cc1nccn1-c1ncc(C(=O)N(C2CC2)[C@@H]2CCN(c3ncc(C(F)(F)F)cn3)C[C@@H]2F)cn1 (single isomer, unassigned) [Example 101] | 5
33 | O=C(c1cnc(-n2cncn2)nc1)N(C1CC1)[C@@H]1CCN(c2ncc(C(F)(F)F)cn2)C[C@@H]1F (single isomer, unassigned) [Example 102] | 50
34 | Cc1ncnn1-c1ncc(C(=O)N(C2CC2)[C@@H]2CCN(c3ccc(C(F)(F)F)cn3)C[C@@H]2F)cn1 (single isomer, unassigned) [Example 103] | 391
35 | CCc1cnc(N2CC[C@@H](N(C(=O)c3cn(-c4ccc(C#N)cn4)cn3)C3CC3)[C@@H](F)C2)nc1 (single isomer, unassigned) [Example 107] | 188
36 | CCc1cnc(N2CC[C@@H](N(C(=O)c3cn(-c4ccc(S(C)(=O)=O)cc4F)cn3)C3CC3)[C@@H](F)C2)nc1 (single isomer, unassigned) [Example 108] | 82
37 | CCc1cnc(N2CCC(N(C(=O)c3cn(-c4ccc(C#N)cc4F)cn3)C3CC3)C(F)C2)nc1 (single isomer, unassigned) [Example 109] | 53
38 | CCc1cnc(N2CC[C@@H](N(C(=O)c3cn(-c4ccc(C#N)cn4)c(C)n3)C3CC3)[C@@H](F)C2)nc1 (single isomer, unassigned) [Example 110] | 363
39 | CCc1cnc(N2CC[C@@H](N(C(=O)c3cn(-c4ccc(S(C)(=O)=O)cc4F)c(C)n3)C3CC3)[C@@H](F)C2)nc1 (single isomer, unassigned) [Example 111] | 1610
40 | CCc1cnc(N2CC[C@@H](N(C(=O)c3cn(-c4ccc(C#N)cc4F)c(C)n3)C3CC3)[C@@H](F)C2)nc1 (single isomer, unassigned) [Example 112] | 789
41 | Cc1nccn1-c1ccc(C(=O)N(C2CC2)C2CCN(c3ncc(C(F)(F)F)cc3F)CC2)cn1 [Example 43] | 73
42 | Cc1ncnn1-c1ccc(C(=O)N(C2CC2)C2CCN(c3ncc(C(F)(F)F)cc3F)CC2)cn1 [Example 44] | 22
43 | O=C(c1cnc(-n2cncn2)cn1)N(C1CC1)C1CCN(c2ncc(C(F)(F)F)cc2F)CC1 [Example 46] | 78
44 | O=C(c1cnc(-n2cncn2)nc1)N(C1CC1)C1CCN(c2ncc(C(F)(F)F)cc2F)CC1 [Example 47] | 125
45 | Cc1ncn(-c2cnc(C(=O)N(C3CC3)C3CCN(c4ncc(C(F)(F)F)cc4F)CC3)cn2)n1 [Example 48] | 27
46 | Cc1nnnn1-c1ccc(C(=O)N(C2CC2)C2CCN(c3ncc(C(F)(F)F)cc3F)CC2)cn1 [Example 49] | 9
47 | Cc1ncnn1-c1ncc(C(=O)N(C2CC2)C2CCN(c3ncc(C(F)(F)F)cc3F)CC2)cn1 [Example 50] | 148

Reference: patent US8921398B2 (Boehringer Ingelheim International GmbH, priority 2011, dated 2014)
